# “Also recorded” adds a separate entry of the source.
# Assays:
# caspase 3 = experiment: Western blot of caspase 3 in MDA-MB-468 cells; format: cell-based
# Source text: (§1) Caspases, cysteine-containing aspartic acid-specific proteases, afford essential factors in cell networks that control and regulate death of the cell. Caspase-3 is a vital executioner protease which is triggered by cascade of initiator caspases such as caspase-9 [49]. This study was further extended to explore the apoptosis mechanism of compound 12d upon breast cancer, MDA-MB-468, cells by measuring the expression of apoptosis biomarkers (cleaved caspase 3 and caspase 9) via Gel electrophoresis and immune-blot analysis of proteins (Western Blot) using β-actin to normalize the loading. […] Accordingly, compound 12d have the ability to induce apoptosis in MDA-MB-468 cancer cells probably by pathways involving both caspase3 and caspase9.
# (§2) MDA-MB-468 cells, were harvested on dishes of cell culture and treated for 24 h with compound 12d. An equal amount of protein transferred to PVDF membranes after separated by SDS-PAGE (5–15%). Skim milk with concentration 5% was used to block the blotted membranes for 1 h before being incubated with the desired primary antibodies at 37 °C for 1 h. Colorimetric technique was used to visualize immune reactive bands using Geldoc-it, UVP, England. To quantify equal loading, membrane was reseeded with β-actin antibody.
# (§3) Eelectrophoresed proteins on SDS-PAGE were transferred to a Hybond™ nylon membrane (GE Healthcare) via TE62 Standard transfer tank with Cooling Chamber (Hoefer Inc. and incubate for 1 hour at room temperature in Blocking Solution. Additionally, β-actin (abcam, ab8227) was applied as housekeeping protein.
# (§4) - Membrane was incubated the overnight at 4°C in antibody solution containing caspase isoform (Cell Signalling) separately for each antibody.
# (§5) - Colorimetric technique was used to visualize immune reactive bands using Geldoc-it, UVP, England. Each experiment was run in triplicate.
# [1] = system: Breast cancer (MDA-MB-468); experiment: NCI single dose SRB screen, MDA-MB-468; format: cell-based; conditions: for inhibition at 10 µM: Homo sapiens, MDA-MB-468, 48 h, 10^−5 M single dose, 48 h, SRB, read-out: GI% Breast cancer (MDA-MB-468); for GI% Normoxia MDA-MB-468: normoxic condition (5% CO2, 95% air at 37 °C), NCI protocol
# Summary of the method: (§6)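 The NCI 60-cell-line panel was screened at a single 10 µM dose with 48 h drug exposure. Cell growth and viability were measured by sulforhodamine B colorimetric assay, per the NCI Drug Evaluation Branch protocol.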
# hCA I = molecular target: T1, hCA I (Homo sapiens, UniProt P00915); experiment: stopped-flow CO2 hydrase assay, hCA I; format: biochemical; conditions: stopped flow technique, mean from 3 different assays
# T1 construct: made in house
# [2] = system: normal human embryonic kidney cells (HEK-293); experiment: normal cell line cytotoxicity (MTT), HEK-293; format: cell-based
# Method: All data was collected in triplicate, and IC50 values were calculated as the average of three separate trials.
# hCA XII = molecular target: T2, hCA XII (Homo sapiens, UniProt O43570); experiment: stopped-flow CO2 hydrase assay, hCA XII; format: biochemical; conditions: for Ki: stopped flow technique, mean from 3 different assays
# T2 construct: made in house
# leukemia (CCRF-CM) = experiment: anti-proliferative activity under hypoxic condition (MTT), CCRF-CM; format: cell-based; conditions: for GI% Hypoxia CCRF-CM: hypoxic condition (1% O2, 5% CO2, and 94%N2 at 37 °C); for IC50: hypoxic conditions (1%O2, 5% CO2 and 94% N2), mean ± S.D. of three experiments
# Method: (§7) All cells were incubated in hypoxic atmosphere (1% O2, 5% CO2, and 94%N2) and maintained at 37 °C. All procedures to determine compounds cytotoxicity were accomplished using MTT assay as reported,[59],[60].
# [3] = system: Breast cancer (MDA-MB-468); experiment: anti-proliferative activity under hypoxic condition (MTT), MDA-MB-468; format: cell-based; conditions: for IC50: Homo sapiens, MDA-MB-468, hypoxic conditions (1%O2, 5% CO2 and 94% N2), mean ± S.D. of three experiments; for GI% Hypoxia MDA-MB-468: hypoxic condition (1% O2, 5% CO2, and 94%N2 at 37 °C)
# Method: as §7
# [4] = system: MDA-MB-468 breast cancer cells; experiment: cell cycle analysis by flow cytometry; format: cell-based; conditions: 24 h at IC50 concentration (3.99 µM)
# Source text: Cell cycle is composed of four distinct phases: G1, S, G2, and M[45]. Flow cytometry analysis of DNA ploidy in MDA-MB-468 breast cancer cells was used to evaluate the influence of compound 12d on normal cell cycle progression. […] Apoptosis and DNA fragmentation are possible mechanisms for 12d-induced cancer cell death based on the observed high increase in a pre-G1 cell population by 20 fold compared to the control.
# The treated cells were centrifuged and maintained in ice-cold ethanol (70%) before being washed again with PBS and then re-suspended in RNase ([…]) followed by staining with 40 µg/mL PI, and analyzed by flow cytometry technique using a FACS Calibur (Becton Dickinson,BD, USA). Cell cycle distribution were calculated via CellQuest software 5.1 (Becton Dickinson),[63].
# hCA II = molecular target: T3, hCA II (Homo sapiens, UniProt P00918); experiment: stopped-flow CO2 hydrase assay, hCA II; format: biochemical; conditions: stopped flow technique, mean from 3 different assays
# T3 construct: made in house
# [5] = system: MDA-MB-468 breast cancer cells; experiment: Annexin V-FITC/propidium iodide apoptosis assay; format: cell-based
# Method: Apoptosis of tumor cells is the principal therapeutic objective of antiproliferative agents. The apoptotic induction potential of 12d in MDA-MB-468 cells were assessed using the Annexin V/propidium iodide double staining assay,[48].
# Cells apoptosis further analyzed by measuring phosphatidylserine externalization using V-FITC/PI apoptosis detection kit (BD Biosciences, USA) according manufacturer's instructions, as reported,[62].
# Leukemia (SR) = experiment: NCI single dose SRB screen, SR; format: cell-based; conditions: 48 h, 10^−5 M single dose, read-out: GI% Leukemia (SR)
# Summary of the method: as §6
# breast cancer (T-47D) = experiment: NCI single dose SRB screen, T-47D; format: cell-based; conditions: 10 µM single dose
# Method: (§8) Target compounds in series (A) and (B), were submitted to the National Cancer Institute (NCI) Developmental Therapeutic Program (www.dtp.nci.nih.gov), where they have been assessed, in vitro for their anticancer activity. Two series (A) and (B), were screened in a single dose (10 µM) versus full panel composed of 60 cancer cell lines, in accordance with protocol of drug evaluation branch, NCI, Bethesda. Sulforhodamine B (SRB) colorimetric assay was used to determine cell growth and viability,[40].
# (§9) Protocol of Drug Evaluation Branch, NCI, Bethesda, was adopted in the antitumor assay. Assessment of cell growth and viability was carried out utilizing SRB assay and 48 h drug exposure protocol as previously reported,[40].
# leukemia (RPMI-8226) = experiment: NCI single dose SRB screen, RPMI-8226; format: cell-based; conditions: 10 µM single dose
# Method: as §8, §9
# caspase 9 = experiment: Western blot of caspase 9 in MDA-MB-468 cells; format: cell-based
# Source text: as §1, §2, §3, §4, §5
# hCA IX = molecular target: T4, hCA IX (Homo sapiens, UniProt Q16790); experiment: stopped-flow CO2 hydrase assay, hCA IX; format: biochemical
# T4 construct: made in house
# Leukemia (CCRF-CEM) = experiment: NCI single dose SRB screen, CCRF-CEM; format: cell-based; conditions: normoxic condition (5% CO2, 95% air at 37 °C), NCI protocol
# Method: as §8, §9
# CNS cancer (SNB-75) = experiment: NCI single dose SRB screen, SNB-75; format: cell-based; conditions: Homo sapiens, SNB-75, 48 h, 10^−5 M single dose, read-out: GI% CNS cancer (SNB-75)
# Summary of the method: as §6
# Renal cancer (UO-31) = experiment: NCI single dose SRB screen, UO-31; format: cell-based; conditions: Homo sapiens, UO-31, 48 h, 10^−5 M single dose, read-out: GI% Renal cancer (UO-31)
# Summary of the method: as §6
# [6] = system: non-small cell lung cancer (HOP-92); experiment: NCI single dose SRB screen, HOP-92; format: cell-based; conditions: 10 µM single dose
# Method: as §8, §9
# [7] = Western blot, β-actin normalised
# T2 sequence (O43570 25-354): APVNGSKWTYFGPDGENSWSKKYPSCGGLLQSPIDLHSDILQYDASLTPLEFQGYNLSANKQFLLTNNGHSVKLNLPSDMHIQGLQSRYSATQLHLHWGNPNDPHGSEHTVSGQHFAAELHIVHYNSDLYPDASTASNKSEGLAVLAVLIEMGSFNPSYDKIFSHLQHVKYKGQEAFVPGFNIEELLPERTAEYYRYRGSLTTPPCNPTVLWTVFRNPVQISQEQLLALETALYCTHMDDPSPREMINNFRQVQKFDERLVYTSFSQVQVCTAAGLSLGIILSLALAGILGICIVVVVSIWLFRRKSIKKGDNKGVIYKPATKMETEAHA
# T1 sequence (P00915 whole entry): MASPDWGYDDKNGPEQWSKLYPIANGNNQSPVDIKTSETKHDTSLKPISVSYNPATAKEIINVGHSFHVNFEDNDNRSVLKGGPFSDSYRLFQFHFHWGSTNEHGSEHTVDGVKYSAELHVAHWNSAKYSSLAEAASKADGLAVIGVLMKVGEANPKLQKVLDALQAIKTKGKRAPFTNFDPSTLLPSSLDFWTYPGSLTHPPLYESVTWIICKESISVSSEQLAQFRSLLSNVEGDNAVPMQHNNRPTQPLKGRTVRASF
structure (smiles),measurement,setting,value
"CN(C)c1ccc(/C=C(\C#N)c2nc(N)nc(Nc3ccc(S(N)(=O)=O)cc3)n2)cc1 [Compound 12d, 4-({4-Amino-6-[(1E)-1-cyano-2-[4-(dimethylamino)phenyl]eth-1-en-1-yl]-1,3,5-triazin-2-yl}amino)benzene-1-sulfonamide]",cleaved caspase 3 expression relative to the control,caspase 3; [7],increasing the level; also recorded: significant activation
same,"Expression level of procaspase 3, Lane %, Mean ± SD","caspase 3; treated 24 h, three replicates, control 42.52 ± 0.013",27.81 ± 0.008%
same,"Expression level of cleaved caspase 3, Lane %, Mean ± SD, first line","caspase 3; treated, first of two band lines (17/19 KDa), control 4.91 ± 0.017",6.88 ± 0.008%
same,"Expression level of cleaved caspase 3, Lane %, Mean ± SD, second line","caspase 3; treated, second of two band lines (17/19 KDa), control 13.59 ± 0.0",22.42 ± 0.0%
same,inhibition at 10 µM,[1],≥ 50%
same,GI% Normoxia MDA-MB-468,[1],61.39%
same,Ki,hCA I,577 nM
same,IC50,"[2]; Homo sapiens, HEK293, normal cells, mean ± SD of three independent experiments",68100 ± 3720 nM
same,safety index relative to staurosporine,[2]; cancer versus normal cells,about twofold
same,Selectivity index (SI) I/XII,hCA XII; hCA XII over off-target hCA I,3
same,Selectivity index (SI) II/XII,hCA XII; hCA XII over off-target hCA II,2
same,Ki,hCA XII,188 nM
same,GI% Hypoxia CCRF-CM,leukemia (CCRF-CM),55.82%
same,IC50,leukemia (CCRF-CM),4510 ± 240 nM
same,IC50,[3],3990 ± 210 nM
same,GI% Hypoxia MDA-MB-468,[3],59.38%
same,cell cycle arrest phases,[4],G0-G1 and S phases
same,increase in pre-G1 cell population compared to the control,[4],20 fold
same,Ki,hCA II,364 nM
same,total increase in apoptotic cells compared to the control,[5]; annexin V-FITC positive cells,about 20 fold
same,apoptotic cells in late apoptosis phase (UR),"[5]; annexin V-FITC/PI, control 0.11%",17.66%
same,apoptotic cells in early stage (LR),"[5]; annexin V-FITC/PI, control 0.39%",2.76%
same,inhibition at 10 µM,Leukemia (SR),≥ 50%
same,GI% breast cancer (T-47D),breast cancer (T-47D),≥ 50%
same,GI% leukemia (RPMI-8226),leukemia (RPMI-8226),≥ 50%
same,cleaved caspase 9 expression relative to the control,caspase 9; [7],increasing the level; also recorded: significant activation
same,"Expression level of procaspase 9, Lane %, Mean ± SD","caspase 9; treated 24 h, three replicates, control 40.53 ± 0.008",25.30 ± 0.004%
same,"Expression level of cleaved caspase 9, Lane %, Mean ± SD, first line","caspase 9; treated, first of two band lines (35/37 KDa), control 6.75 ± 0.008",6.04 ± 0.012%
same,"Expression level of cleaved caspase 9, Lane %, Mean ± SD, second line","caspase 9; treated, second of two band lines (35/37 KDa), control 14.32 ± 0.004",21.59 ± 0.004%
same,Selectivity index (SI) I/IX,hCA IX; hCA IX over off-target hCA I,3
same,Selectivity index (SI) II/IX,hCA IX; hCA IX over off-target hCA II,2
same,Ki,"hCA IX; stopped flow technique, mean from 3 different assays",190 nM
same,GI% Normoxia CCRF-CM,Leukemia (CCRF-CEM),52.61%
"N#C/C(=C\c1cccc(F)c1)c1nc(N)nc(Nc2ccc(S(N)(=O)=O)cc2)n1 [Compound 12i, 4-({4-Amino-6-[(1E)-1-cyano-2-(3-fluorophenyl)eth-1-en-1-yl]-1,3,5-triazin-2-yl}amino)benzene-1-sulfonamide]",inhibition at 10 µM,[1],17%
same,GI% Normoxia MDA-MB-468,[1],16.58%
same,Ki,hCA I,480 nM
same,Ki,hCA XII,182 nM
same,GI% Hypoxia CCRF-CM,leukemia (CCRF-CM),50.14%
same,IC50,leukemia (CCRF-CM),9830 ± 520 nM
same,inhibition at 10 µM,CNS cancer (SNB-75),≤ 10%
same,inhibition at 10 µM,Renal cancer (UO-31),20%
same,IC50,[3],1480 ± 80 nM
same,GI% Hypoxia MDA-MB-468,[3],64.75%
same,Ki,hCA II,253 nM
same,inhibition at 10 µM,Leukemia (SR),≤ 10%
same,GI% non-small cell lung cancer (HOP-92),[6],16%
same,GI% Normoxia CCRF-CM,Leukemia (CCRF-CEM),0.76%

# Source: paper PMC9537541, “Synthesis and anticancer activity of new benzensulfonamides incorporating s-triazines as cyclic linkers for inhibition of carbonic anhydrase IX” (Scientific Reports, 2022)
